The values that follow come from patent US8722849B2, “Polypeptides” (Novo Nordisk A/S, priority 2011, dated 2014).

Data set [1] can be described thus: Assay (IV) determination of solubility. The class given is physicochemical. A digest of the protocol: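 Polypeptide in water (~500 nmol/ml) mixed 1:1 with 100 mM glycylglycine (pH 3.0–5.0) or bistrispropane (pH 6.0–8.0) buffers. Held 18 hours at room temperature, then centrifuged. Polypeptide remaining in solution quantified by HPLC.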
Data set [2] concerns the target T1, human amylin receptor (amylin 3(a) receptor: human calcitonin receptor + RAMP-3) (Homo sapiens, UniProt O60896+P30988).
T1 construct: expressed in transfected cells; host or cells: BHK570
T1 sequence (P30988 25-474): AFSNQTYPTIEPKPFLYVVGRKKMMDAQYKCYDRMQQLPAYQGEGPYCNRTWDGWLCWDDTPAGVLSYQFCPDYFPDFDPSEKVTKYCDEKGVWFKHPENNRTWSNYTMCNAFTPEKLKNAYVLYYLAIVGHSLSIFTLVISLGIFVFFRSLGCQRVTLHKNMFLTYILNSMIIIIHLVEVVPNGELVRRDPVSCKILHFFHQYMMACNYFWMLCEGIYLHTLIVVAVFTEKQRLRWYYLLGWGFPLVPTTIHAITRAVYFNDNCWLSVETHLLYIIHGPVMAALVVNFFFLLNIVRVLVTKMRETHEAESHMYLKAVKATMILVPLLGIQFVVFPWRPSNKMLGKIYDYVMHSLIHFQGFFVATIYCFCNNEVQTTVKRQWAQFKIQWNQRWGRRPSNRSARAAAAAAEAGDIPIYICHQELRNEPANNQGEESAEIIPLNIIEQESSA
T1 sequence (O60896 24-148 partner): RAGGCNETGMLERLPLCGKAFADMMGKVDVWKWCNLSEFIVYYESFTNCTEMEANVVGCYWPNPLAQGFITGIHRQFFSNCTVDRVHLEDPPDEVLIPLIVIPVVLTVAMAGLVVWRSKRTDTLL
The data set can be described thus: Assay (II)a functional CRE-luciferase assay, human amylin receptor. The following applies: Table 2; BHK amylin 3(a)-receptor/CRE-luc cells. Format: cell-based.

The target of data set [3] is T2, human calcitonin receptor (Homo sapiens, UniProt P30988).
T2 construct: expressed in transfected cells; host or cells: BHK570
T2 sequence (P30988 25-474): T1 sequence (P30988 25-474)
As to the kind of experiment: Assay (II)a functional CRE-luciferase assay, human calcitonin receptor. Format: cell-based. The following applies: Table 7; human calcitonin (CTa) receptor.

Setting [4] is: bistrispropane buffer, pH 6, pH 6.0, read-out: Solubility pH 6.0.
Setting [5] is: bistrispropane buffer, pH 6.5, pH 6.5, read-out: Solubility pH 6.5.
[6] abbreviates: bistrispropane buffer, pH 7, pH 7.0, read-out: Solubility pH 7.0.
The mark [7] stands for this setting: bistrispropane buffer, pH 7.5, pH 7.5, read-out: Solubility pH 7.5.
[8] abbreviates: bistrispropane buffer, pH 8, pH 8.0, read-out: Solubility pH 8.0.
Setting [9] is: glycylglycine buffer, pH 3, pH 3.0, read-out: Solubility pH 3.0.
The mark [10] stands for this setting: glycylglycine buffer, pH 4, pH 4.0, 18 hours at room temperature, Table 2, read-out: Solubility pH 4.0.
The mark [11] stands for this setting: glycylglycine buffer, pH 4, pH 4.0, read-out: Solubility pH 4.0.
The mark [12] stands for this setting: glycylglycine buffer, pH 5, pH 5.0, read-out: Solubility pH 5.0.

Values after ≈ are worked out from the molar mass of the structure shown. Where two headings read alike, the source gives them in different places. Starred links: 1 amine or outer side, 2 acyl side, 3 side chain; linkers in the order of their positions; H or OH if unused. Positions of bridges follow the written chain, without caps; N, C: chain ends. Residues, ends and D or L forms follow the SMILES beside them. *: point of attachment. C20 diacid = O=C(O)CCCCCCCCCCCCCCCCCCC(=O)*; C18 diacid = O=C(O)CCCCCCCCCCCCCCCCC(=O)*; γGlu = O=C(O)[C@H](CCC(=O)[*:2])N[*:1] Where only a bound is given, the exact number is not on record here.

By solubility is commonly meant how much of the substance goes into solution per volume. Broadly, the EC50 is the concentration giving half of the maximal effect. `CC[C@H](C)[C@H](NC(=O)[C@@H]1CCCN1C(=O)CNC(=O)[C@H](Cc1ccccc1)NC(=O)[C@H](CC(N)=O)NC(=O)[C@H](CC(N)=O)NC(=O)[C@H](CO)NC(=O)[C@H](CO)NC(=O)[C@H](Cc1c[nH]cn1)NC(=O)[C@H](Cc1c[nH]cn1)NC(=O)[C@H](CC(C)C)NC(=O)[C@H](Cc1ccccc1)NC(=O)[C@H](CCC(=O)O)NC(=O)[C@H](C)NC(=O)[C@H](CC(C)C)NC(=O)[C@H](CCCNC(=N)N)NC(=O)[C@H](CCC(N)=O)NC(=O)[C@@H](NC(=O)[C@H](C)NC(=O)[C@@H]1CSSC[C@H](NC(=O)[C@H](Cc2c[nH]cn2)NC(=O)CC[C@H](NC(=O)CCCCCCCCCCCCCCCCCCC(=O)O)C(=O)O)C(=O)N[C@@H](CC(N)=O)C(=O)N[C@@H]([C@@H](C)O)C(=O)N[C@@H](C)C(=O)N[C@@H]([C@@H](C)O)C(=O)N1)[C@@H](C)O)C(=O)N[C@@H](CC(C)C)C(=O)N1CCC[C@H]1C(=O)N1CCC[C@H]1C(=O)N[C@H](C(=O)N[C@@H](CC(N)=O)C(=O)N[C@H](C(=O)NCC(=O)N[C@@H](CO)C(=O)N[C@@H](CC(N)=O)C(=O)N[C@H](C(=O)N[C@@H](Cc1ccc(O)cc1)C(N)=O)[C@@H](C)O)C(C)C)[C@@H](C)O` [Example 18, N-alpha-[(S)-4-Carboxy-4-(19-carboxynonadecanoylamino)butyryl]-[His1,Glu14,His17]-pramlintide] ({C20 diacid-γGlu}-HCNTATCATQRLAEFLHHSSNNFGPILPPTNVGSNTY-NH2; disulfide 2-7 (inferred); C-terminus assumed): the solubility at 18 h is > 200 µM in data set [1] (setting [4]); 153 µM (≈ 683 µg/mL) in data set [1] (setting [5]); 191 µM (≈ 853 µg/mL) in data set [1] (bistrispropane buffer, pH 7, pH 7.0, 18 hours at room temperature, Table 3, read-out: Solubility pH 7.0); 191 µM (≈ 853 µg/mL) in data set [1] (setting [6]); > 200 µM in data set [1] (setting [7]); > 200 µM in data set [1] (setting [8]). For the same molecule, the solubility at 18 h in data set [1] (setting [9]), in data set [1] (setting [10]), in data set [1] (setting [11]) and in data set [1] (setting [12]) was > 200 µM in each case. Besides, the EC50 in data set [2] was 0.131 nM; in data set [3] it was 0.126 nM.

Consider `CC[C@H](C)[C@H](NC(=O)[C@@H]1CCCN1C(=O)CNC(=O)[C@H](Cc1ccccc1)NC(=O)[C@H](CC(N)=O)NC(=O)[C@H](CC(N)=O)NC(=O)[C@H](CO)NC(=O)[C@H](CO)NC(=O)[C@H](Cc1c[nH]cn1)NC(=O)[C@H](Cc1c[nH]cn1)NC(=O)[C@H](CC(C)C)NC(=O)[C@H](Cc1ccccc1)NC(=O)[C@H](CCC(=O)O)NC(=O)[C@H](C)NC(=O)[C@H](CC(C)C)NC(=O)[C@H](CCCNC(=N)N)NC(=O)[C@H](CCC(N)=O)NC(=O)[C@@H](NC(=O)[C@H](C)NC(=O)[C@@H]1CSSC[C@H](NC(=O)[C@H](Cc2c[nH]cn2)NC(=O)CC[C@H](NC(=O)CCCCCCCCCCCCCCCCCCC(=O)O)C(=O)O)C(=O)N[C@@H](CC(N)=O)C(=O)N[C@@H]([C@@H](C)O)C(=O)N[C@@H](C)C(=O)N[C@@H]([C@@H](C)O)C(=O)N1)[C@@H](C)O)C(=O)N[C@@H](CC(C)C)C(=O)N1CCC[C@H]1C(=O)N1CCC[C@H]1C(=O)N[C@H](C(=O)N[C@@H](CC(N)=O)C(=O)N[C@H](C(=O)NCC(=O)N[C@@H](CO)C(=O)N[C@@H](Cc1c[nH]cn1)C(=O)N[C@H](C(=O)N[C@@H](Cc1ccc(O)cc1)C(N)=O)[C@@H](C)O)C(C)C)[C@@H](C)O` [Example 76, N-alpha-[(S)-4-Carboxy-4-(19-carboxynonadecanoylamino)butyryl]-[His1,Glu14,His17,His35]-pramlintide] ({C20 diacid-γGlu}-HCNTATCATQRLAEFLHHSSNNFGPILPPTNVGSHTY-NH2; disulfide 2-7 (inferred); C-terminus assumed), for which the solubility at 18 h in data set [1] (setting [4]) was 45 µM (≈ 202 µg/mL); in data set [1] (setting [5]), 1 µM (≈ 4.49 µg/mL); in data set [1] (setting [6]) it was 4 µM (≈ 18 µg/mL); in data set [1] (setting [7]), 104 µM (≈ 467 µg/mL); in data set [1] (setting [8]), > 200 µM; in data set [1] (setting [9]), > 200 µM. Further, the solubility at 18 h in data set [1] (setting [10]), in data set [1] (setting [11]) and in data set [1] (setting [12]) was > 200 µM in each case. The EC50 in data set [2] was found to be 0.121 nM; in data set [3], 0.0855 nM.

Take `CC[C@H](C)[C@H](NC(=O)[C@@H]1CCCN1C(=O)CNC(=O)[C@H](Cc1ccccc1)NC(=O)[C@H](CC(N)=O)NC(=O)[C@H](CC(N)=O)NC(=O)[C@H](CO)NC(=O)[C@H](CO)NC(=O)[C@H](Cc1c[nH]cn1)NC(=O)[C@H](CCCNC(=N)N)NC(=O)[C@H](CC(C)C)NC(=O)[C@H](Cc1ccccc1)NC(=O)[C@H](CCC(=O)O)NC(=O)[C@H](C)NC(=O)[C@H](CC(C)C)NC(=O)[C@H](CCCNC(=N)N)NC(=O)[C@H](CCC(N)=O)NC(=O)[C@@H](NC(=O)[C@H](C)NC(=O)[C@@H]1CSSC[C@H](NC(=O)[C@H](CCCCN)NC(=O)[C@H](Cc2c[nH]cn2)NC(=O)CC[C@H](NC(=O)CCCCCCCCCCCCCCCCC(=O)O)C(=O)O)C(=O)N[C@@H](CC(N)=O)C(=O)N[C@@H]([C@@H](C)O)C(=O)N[C@@H](C)C(=O)N[C@@H]([C@@H](C)O)C(=O)N1)[C@@H](C)O)C(=O)N[C@@H](CC(C)C)C(=O)N1CCC[C@H]1C(=O)N1CCC[C@H]1C(=O)N[C@H](C(=O)N[C@@H](CC(N)=O)C(=O)N[C@H](C(=O)NCC(=O)N[C@@H](CO)C(=O)N[C@@H](Cc1c[nH]cn1)C(=O)N[C@H](C(=O)N[C@@H](Cc1ccc(O)cc1)C(N)=O)[C@@H](C)O)C(C)C)[C@@H](C)O` [Example 71, N-alpha-[(S)-4-Carboxy-4-(17-carboxyheptadecanoylamino)butyryl]-His-[Glu14,Arg17,His35]-pramlintide] ({C18 diacid-γGlu}-HKCNTATCATQRLAEFLRHSSNNFGPILPPTNVGSHTY-NH2; disulfide 3-8 (inferred); C-terminus assumed): the solubility at 18 h was > 200 µM in data set [1] (setting [4]); 156 µM (≈ 719 µg/mL) in data set [1] (setting [5]); 37 µM (≈ 170 µg/mL) in data set [1] (setting [6]); 27 µM (≈ 124 µg/mL) in data set [1] (setting [7]); 26 µM (≈ 120 µg/mL) in data set [1] (setting [8]); > 200 µM in data set [1] (setting [9]). Also, the solubility at 18 h in data set [1] (setting [10]), in data set [1] (setting [11]) and in data set [1] (setting [12]) was > 200 µM in each case. The EC50 is 0.0795 nM in data set [2] and 0.947 nM in data set [3].

`CC[C@H](C)[C@H](NC(=O)[C@@H]1CCCN1C(=O)CNC(=O)[C@H](Cc1ccccc1)NC(=O)[C@H](CC(N)=O)NC(=O)[C@H](CC(N)=O)NC(=O)[C@H](CO)NC(=O)[C@H](CO)NC(=O)[C@H](Cc1c[nH]cn1)NC(=O)[C@H](CCCNC(=N)N)NC(=O)[C@H](CC(C)C)NC(=O)[C@H](Cc1ccccc1)NC(=O)[C@H](CCC(=O)O)NC(=O)[C@H](C)NC(=O)[C@H](CC(C)C)NC(=O)[C@H](CCCNC(=N)N)NC(=O)[C@H](CCC(N)=O)NC(=O)[C@@H](NC(=O)[C@H](C)NC(=O)[C@@H]1CSSC[C@H](NC(=O)[C@H](CCCCN)NC(=O)CC[C@H](NC(=O)CCCCCCCCCCCCCCCCCCC(=O)O)C(=O)O)C(=O)N[C@@H](CC(N)=O)C(=O)N[C@@H]([C@@H](C)O)C(=O)N[C@@H](C)C(=O)N[C@@H]([C@@H](C)O)C(=O)N1)[C@@H](C)O)C(=O)N[C@@H](CC(C)C)C(=O)N1CCC[C@H]1C(=O)N1CCC[C@H]1C(=O)N[C@H](C(=O)N[C@@H](CC(N)=O)C(=O)N[C@H](C(=O)NCC(=O)N[C@@H](CO)C(=O)N[C@@H](CC(N)=O)C(=O)N[C@H](C(=O)N[C@@H](Cc1ccc(O)cc1)C(N)=O)[C@@H](C)O)C(C)C)[C@@H](C)O` [Example 50, N-alpha-[(S)-4-Carboxy-4-(19-carboxynonadecanoylamino)butyryl]-[Glu14,Arg17]-pramlintide] ({C20 diacid-γGlu}-KCNTATCATQRLAEFLRHSSNNFGPILPPTNVGSNTY-NH2; disulfide 2-7 (inferred)): the solubility at 18 h in data set [1] (setting [4]) was 161 µM (≈ 720 µg/mL); in data set [1] (setting [5]), 132 µM (≈ 591 µg/mL); in data set [1] (setting [6]), 73 µM (≈ 327 µg/mL); in data set [1] (setting [7]), 62 µM (≈ 277 µg/mL); in data set [1] (setting [8]), 21 µM (≈ 94 µg/mL); in data set [1] (setting [9]) it was > 200 µM. Moreover, the solubility at 18 h was > 200 µM in data set [1] (setting [10]), > 200 µM in data set [1] (setting [11]) and 183 µM (≈ 819 µg/mL) in data set [1] (setting [12]). For the same molecule, the EC50 in data set [2] was found to be 0.101 nM; in data set [3], 0.459 nM.
